According to patent US20080122428A1, “Optimized Determination of Voltage Changes Using a Voltage-Sensitive Dye” (Max-Planck-Gesellschaft zur Forderungder Wissenschaften e. …, priority 2003, published 2008):
Several values for one entry are separate records, joined by “and”; a condition that tells them apart may be missing. Equal values may be shown once.

Assays:
[1] = tested on: Retzius cells (leech neurons); details: cited from earlier work; for shift of the excitation spectrum per membrane voltage: Kuhn and Fromherz, 2003
[2] = tested on: HEK293 cells; experiment: Voltage sensitivity in HEK293 cells by extracellular electric field, laser line scans with one- or two-photon excitation; assay type: cell-based
Procedure: HEK293 cells (DSMZ GmbH, Braunschweig, Germany) were cultured using standard methods on glass coverslips (diameter 24 mm, Assistent, Glaswarenfabrik Karl Hecht KG, Sondheim, Germany). The coverslips were coated with fibronectin (No. 68885, Boehringer-Mannheim, Germany) in PBS (140 mM NaCl, 2.7 mM KCl, 1.5 mM KH2PO4, 6.5 mM Na2HPO4×2H2O) by incubation for 45 min in a 10 μg/ml fibronectin solution and a single subsequent wash with PBS. The cells were plated at densities of 15000 cells per coverslip and were used for up to three days after plating, while the cell density was still low. All measurements were done in a Ringer solution containing (in mM) 135 NaCl, 5.4 KCl, 1.0 MgCl2, 1.8 CaCl2 and 5.0 Hepes, adjusted to pH 7.2 with NaOH.
ANNINE-6 (FIG. 19a) was dissolved in a solution of 20% Pluronic F-127 DMSO (P-3000, Molecular Probes, Eugene, Oreg.) at a concentration of 0.5 mg/ml and sonicated for 15 min. The glass coverslip with the HEK293 cells was taken out of the culture well, exposed to the staining solution (dye stock solution diluted 1:100 into Ringer) for 5 min and finally washed with pure Ringer solution.
To change the voltage across the cell membrane we applied an extracellular electric field. This method (Gross et al., 1986) has a somewhat reduced voltage calibration accuracy but is much simpler than whole-cell recordings, for example, permitting the transfer of the recording chamber between microscope setups thereby allowing the exploration of a wider parameter range. Our custom-made chamber (FIG. 19b) consists of a 2.6 mm wide, and 30 mm long slit in a 0.5 mm thick PMMA (Plexiglas) plate. Two chlorided silver wires (diameter 0.127 mm, Cat. No. 7860, A-M Systems, INC., Everett, Wash.) for the application of the electrical field were fixed to the long edges of the channel with two-component epoxy resin glue (plus sofortfest, UHU, Bühl, Germany). This chamber was sealed on the bottom with a clean coverslip (24 mm×50 mm) attached with silicone grease (Bayer-silicone, Bayer AG, Leverkusen, Germany). The coverslip with the stained HEK293 cells was dried around the edges to get a watertight seal with silicone grease and then mounted cells down on the top side of the chamber. Two openings allowed the continuous perfusion (about 2 ml/min) with physiological saline using a gravity-fed perfusion system.
The voltage stimuli were generated by an arbitrary waveform generator (model 395, wavetek, Ismaning, Germany) and amplified by a custom-built push-pull circuit (using two operational amplifiers, OPA547, Texas Instruments Inc., Texas, USA, FIG. 19c). To avoid electrolysis at the electrodes and ionophoresis of cell-surface components all applied voltage waveforms were purely AC. Short pulses were used to minimize heating (FIG. 19d). The application of the pulse protocol was synchronized to the start of line scan acquisition.
For one-photon excitation we used laser scanning microscopes (Zeiss LSM 510 NLO and Leica TCS SP2) with Ar-ion laser excitation (458 nm, 488 nm, or 514 nm). We used laser illumination instead of, for example, Xe arc-lamps because narrow spectral width and high intensities are needed to obtain sufficient excitation of the dye at the spectral edge. The excitation light at the Zeiss microscope was coupled in via the main dichroic beam splitters (HFT 458/514, reflecting the 458 nm and 514 nm laser lines or HFT KP 700/488, a combined 700 nm short pass and 488 nm reflector). The emitted light was filtered by a long-pass filter (LP560). The Leica microscope uses an acousto-optical main beam splitter and fluorescence was collected in the range of 520 nm to 800 nm. The maximal excitation intensities at the sample were for the Zeiss (Leica) microscope: 1.3 mW (1.5 mW) at 514 nm, 200 μW (250 μW) at 488 nm and 28 μW (35 μW) at 458 nm. The pinhole was completely opened up (8.5 airy units) to collect as much light as possible. […]

[3] = tested on: HEK293 cells; experiment: Tight-seal whole-cell voltage-clamp recordings of HEK293 cells, sensitivity at 514 nm; assay type: cell-based; details: four cells, voltage jumps +/−25, +/−50, +/−75 mV
Procedure: Whole-cell tight-seal voltage-clamp recordings on HEK293 cells were preformed using pipettes with a resistance of around 6 MOhm and an epc9 amplifier (HEKA, Göttingen, Germany).
To test our assumption about the extracellular stimulation the sensitivity at 514 nm was tested by controlling the membrane voltage directly using tight-seal whole-cell recordings of HEK293 cells (FIG. 22). The mean sensitivity measured in four cells using voltage jumps of +/−25, +/−50 and +/−75 mV is −0.37±0.02%/mV, in agreement with the results achieved by the external electric field method.

[4] = tested on: HEK293 cells; experiment: Example 4: HEK293 cells stained by bath application, alternating external electric fields, 1 kHz line scans; assay type: cell-based
From the text: ANNINE-6 is a new, completely anellated hemicyanine dye. […] Several biological preparations were used for testing. First, HEK293 cells were stained by bath application of the dye. Alternating external electric fields generated by applying voltages between two Ag/AgCl-wires in a closed chamber (1). To achieve the high light intensities, which are necessary to excite the dye at the very red edge of the excitation spectrum, we used laser scanning microscopes with Ar-Ion Laser for one-photon excitation (488 nm, 514 nm) and Ti:Sapphire Laser for two-photon excitation (976 nm). The fluorescence changes measured with 1 kHz line scans followed the applied voltage, which was alternated every 10 ms, without discernible delay. We found relative fluorescence increases of more that 60%/100 mV for hyperpolarizing membrane potential changes and decreases of more than 40%/100 mV for depolarizing membrane potential changes at 514 nm excitation wavelength. The asymmetry of the fluorescence change is expected given the spectral shape and a pure electrochromic spectral shift. We found changes of +40%/100 mV and −30%/100 mV both for one-photon excitation at 488 nm and two-photon excitation at 976 nm. Preliminary measurements from cultured hippocampal slices using a soluble variant of ANNINE-6 show fast fluorescence changes of up to 8% upon stimulation of the Schaffer collaterals in CA1. • (1) D. Gross, L. M. Loew and W. Webb. Biophys. J., 50: 339-348, 1986.

[5] = Maximal theoretical sensitivity for excitation in the Boltzmann tail; details: from shift of 1.6 cm^−1/mV
From the text: A common approximation used for spectral shapes is the log-normal function (Siano and Metzler, 1969), which would imply an ever increasing, in fact, diverging sensitivity toward longer wavelengths and the vanishing of excitation above a wavelength of 591 nm. However, simple considerations predict a tail in the absorption spectrum F that follows a Boltzmann distribution (Hinshelwood, 1940)
because an electronic transition between the ground and the excited state with the energy difference h ν00c (h Planck constant, ν00 wavenumber of the 00 transition, c light velocity) and an excitation energy h νc ( ν wavenumber of excitation), which is assumed to be below h ν00c, requires additional vibrational energy E=h ν00c−h νc to reach the lowest excited state, in analogy to anti-Stokes lines in scattering theory. […]
for excitation in the Boltzmann tail (Δμ is the intramolecular charge displacement upon electronic excitation, d is the membrane thickness, θ is the angle between charge displacement and membrane normal). […] For comparison: the highest measured sensitivity value was −0.52±0.05%/mV (with 2-photon excitation at 1040 nm, corresponding to 520 nm). […]

## CCCCCN(CCCCC)c1ccc(/C=C/C=C/c2cc[n+](CCCCS(=O)(=O)[O-])cc2)cc1 [RH-421, reference compound]
[1]
  shift of the excitation spectrum per membrane voltage: 0.5 cm^−1/mV

## CCCCN(CCCC)c1ccc2cc(C=Cc3cc[n+](CCCCS(=O)(=O)[O-])cc3)ccc2c1 [di-4-ANEPBS, reference compound]
[1]
  shift of the excitation spectrum per membrane voltage: 0.9 cm^−1/mV

## CCCCN(CCCC)c1ccc2c(ccc3c2ccc2c4ccc5c[n+](CCCCS(=O)(=O)[O-])ccc5c4ccc32)c1 [ANNINE-6]
[2]; 100 mV depolarization, 514 nm
  fluorescence change for large voltage swing: −28%
[2]; 100 mV depolarization, 1040 nm
  fluorescence change for large voltage swing: −40%
[2]; 100 mV hyperpolarization, 514 nm
  fluorescence change for large voltage swing: 50%
[2]; 100 mV hyperpolarization, 1040 nm
  fluorescence change for large voltage swing: 70%
[2]; 515 nm, 1-photon, dye incorporated inside the cells (as expected)
  sensitivity: 0.37 %/mV
[2]; 515 nm, 2-photon, dye incorporated inside the cells (as expected)
  sensitivity: 0.52 %/mV
[2]; 976 nm versus 488 nm, same cell
  2PE sensitivity higher than 1PE sensitivity at half the wavelength: about 20%
[2]; after 900 line scans at 1040 nm over a period of over 2 h
  sensitivity at end of repeated line scans: −0.58±0.02 %/mV
[2]; cell of FIG. 21a, one-photon 458 nm
  slope sensitivity at the resting potential, single cell: −0.16 %/mV
[2]; cell of FIG. 21a, one-photon 488 nm
  slope sensitivity at the resting potential, single cell: −0.26 %/mV
[2]; cell of FIG. 21a, one-photon 514 nm
  slope sensitivity at the resting potential, single cell: −0.37 %/mV
[2]; cell of FIG. 23, two-photon 960 nm
  slope sensitivity at the resting potential, single cell: −0.35 %/mV
[2]; cell of FIG. 23, two-photon 980 nm
  slope sensitivity at the resting potential, single cell: −0.41 %/mV
[2]; cell of FIG. 23, two-photon 1000 nm
  slope sensitivity at the resting potential, single cell: −0.49 %/mV
[2]; cell of FIG. 23, two-photon 1020 nm
  slope sensitivity at the resting potential, single cell: −0.54 %/mV
[2]; cell of FIG. 23, two-photon 1040 nm
  slope sensitivity at the resting potential, single cell: −0.59 %/mV
[2]; excitation wavelength 515 nm, 1-photon, dye at the outer side of the membrane
  sensitivity: −0.37 %/mV
[2]; one-photon excitation 488 nm, four cells
  small-signal fractional fluorescence change (mean sensitivity): −0.28 %/mV and −0.28±0.03 %/mV
[2]; one-photon excitation 514 nm, four cells
  small-signal fractional fluorescence change (mean sensitivity): −0.35 %/mV and −0.35±0.03 %/mV
[2]; single cell, excitation at 1040 nm
  sensitivity at begin of repeated line scans: −0.59±0.01 %/mV
[2]; two-photon excitation 960 nm, 4 cells
  small-signal fractional fluorescence change (mean sensitivity): −0.29 %/mV and −0.29±0.05 %/mV
[2]; two-photon excitation 980 nm, 4 cells
  mean sensitivity: −0.35±0.05 %/mV
[2]; two-photon excitation 1000 nm, 4 cells
  small-signal fractional fluorescence change (mean sensitivity): −0.43 %/mV and −0.43±0.05 %/mV
[2]; two-photon excitation 1020 nm, 4 cells
  mean sensitivity: −0.47±0.06 %/mV
[2]; two-photon excitation 1040 nm, 4 cells
  small-signal fractional fluorescence change (mean sensitivity): −0.52 %/mV and −0.52±0.06 %/mV and −0.52±0.05 %/mV
[3]
  mean sensitivity with direct control of membrane voltage: −0.37±0.02 %/mV
[4]; depolarizing membrane potential changes, 514 nm
  relative fluorescence decrease: more than 40 %/100 mV
[4]; hyperpolarizing membrane potential changes, 514 nm
  relative fluorescence increase: > 60 %/100 mV
[4]; one-photon excitation 488 nm
  relative fluorescence change, negative: −30 %/100 mV
  relative fluorescence change, positive: +40 %/100 mV
[4]; two-photon excitation 976 nm
  relative fluorescence change, negative: −30 %/100 mV
  relative fluorescence change, positive: +40 %/100 mV
[5]
  Boltzmann-tail sensitivity (theoretical limit): −0.77 %/mV
[1]; 488 nm, published (Kuhn and Fromherz, 2003)
  sensitivity in Leech: −0.29 %/mV
[1]
  shift of the excitation spectrum per membrane voltage: 1.6 cm^−1/mV

## CCCCN(CCCC)c1ccc2c(ccc3c2ccc2c4cc[n+](CCCCS(=O)(=O)[O-])cc4ccc23)c1 [ANNINE-5]
[1]
  shift of the excitation spectrum per membrane voltage: 1.3 cm^−1/mV
